Assay results from patent US11779567B2, “Method for optimizing 5-hydroxytryptamine function in the brain for therapeutic purposes” (Evecxia Therapeutics, Inc., priority 2021, dated 2023).
≈ marks a conversion by molar mass, not a printed value. Where “and” joins values, the source holds several entries; their conditions need not be identical. Equal values may be shown once.

Key:
Solubility of 5-HTP = format: physicochemical; settings: water, read-out: aqueous solubility
Procedure: The aqueous solubility of 5-HTP is approximately 10 mg/ml. However, 5-HTP has been reported to be soluble to up to about 100 mg/ml in some solvents (Jacobsen et al, 2016a). In some embodiments, the concentration of 5-HTP in the infusion solutions (i.e., the infusate fluids) is between about 1 mg/ml and about 10 mg/ml. In some embodiments, the concentration is between about 0.1 mg/ml and about 1 mg/ml. In some embodiments, the concentration is between about 10 mg/ml and about 100 mg/ml.

[1] = Dose-proportionality assessment (power model) of IV 5-HTP continuous infusion; format: in vivo, human; settings: doses up to 3 mg/kg/24 hr
Source text: Background: The term dose proportionality denotes a proportional and linear relationship between dose and a pharmacokinetic measure, for the specific (i) dose-range, (i) dosing route, and (iii) dosing regimen investigated. More particularly, if doubling the dose doubles the pharmacokinetic measure of maximal (CMax) or total (AUC) systemic exposure to the compound administered, then dose proportionality is present, at least within the dose ranges examined. […] The relationship between dose and plasma compound concentration (C (e.g., CMax or AUC)) can be described via the following equation: C=α dose^β When β=1, dose proportionality is present. If so, C=α dose. α is a constant relating dose to C, for a given range of C and given dose units, and is identical to the slope of the regression line. In the power model (Smith et al, 2000), dose proportionality is assessed via the following linear equation: log(C)=log(α)+β×log(dose)+error Based on standard statistical methods for linear models, estimates for β together with confidence limits can be derived. […]
Methods: Applying the approach by Smith (Smith et al, 2000), using a general linear model and SAS software Version 9.4, dose proportionality of continuously administered IV 5-HTP was assessed using the data in Table 9, below. […]

[2] = Safety and tolerability of IV 5-HTP continuous infusion; format: in vivo, human
Procedure: Methods: Safety and tolerability of the IV 5-HTP continuous infusion were assessed during the 24 hr administration of IV 5-HTP infusion (see Example 5) or placebo and approximately 24 hr after end of the infusion. Safety and tolerability of the IV 5-HTP infusion were assessed by monitoring of adverse events (AEs), standard clinical safety laboratory tests, electrocardiograms (ECG), vital signs, and clinical scales of suicidality. The safety population included all subjects. Vital sign measurements included systolic blood pressure (mmHg), diastolic blood pressure (mmHg), heart rate (beats/min), respiratory rate (breaths/min), and oral temperature. Twelve-lead electrocardiogram measurements were performed in triplicate. The recorded parameters included heart rate (beats/min), PR (msec), QRS (msec), and QTcF (msec). Assessments were rated as normal, not clinically significant, or clinically significant. Clinical laboratory tests included a complete blood count, chemistry panel, coagulation panel, and thyroid stimulating hormone.
Statistics: Descriptive statistics (n, mean, SD, minimum, and maximum) for absolute values and changes from baseline were calculated.

plasma cortisol = experiment: Pharmacodynamics: acute increase in plasma cortisol; format: in vivo, human
Source text: Background: Compounds that acutely elevate brain 5-HTExt can activate the hypothalamic pituitary adrenal axis and induce the release of cortisol from the adrenals into the plasma (Attenburrow et al, 2001; Demisch et al, 1986; Guan et al, 2020; Kapitany et al, 1999; Lowe et al, 2006; Meltzer et al, 1983; Sargent et al, 1998). Generally large, acute increases in brain 5-HTExt are required to increase cortisol and the effect desensitizes rapidly with prolonged serotonin elevation (Mashchak et al, 1983).
Method: Total plasma cortisol levels (expressed in μg/dL) were quantified using standard immunoassay methodology. Total plasma cortisol levels were measured at multiple time points during the 24 hr infusion period of 5-HTP solution for IV infusion or placebo. Total plasma cortisol levels were measured at baseline (T=0) before the start of infusion. Blood samples were collected at T=0, and at pre-specified timepoints following initiation of infusion (2, 4, 6, 8, 10, 12, 14, 22, 24 hr). The pharmacodynamic population included subjects who received IV 5-HTP and completed the 24 h infusion or placebo and who had escitalopram levels above the lower limit of quantitation.
Statistics: Changes from baseline value were calculated for each time point using descriptive statistics (n, arithmetic mean, SD, CV). A comparison between active treatment and placebo was made for each time point and cohort using ANOVA with Dunnett's post-hoc correction of the p-value to account for multiple testing. Significance was set at p<0.05. Statistical analysis was executed using SAS software Version 9.4,

[3] = some solvents (Jacobsen et al, 2016a); cited from earlier work
[4] = 2 mg/kg/24 hr ramp rate infusion
[5] = ramp flow rate, 1 mg/kg/24 hr, subjects with event/subjects

## N[C@@H](Cc1c[nH]c2ccc(O)cc12)C(=O)O [5-HTP, 5-hydroxytryptophan]
Solubility of 5-HTP
  solubility: ~10000 µg/mL (≈ 45.4 mM)
[1]
  dose proportionality: dose proportionality for doses up to 3 mg/kg/24 hr was accepted
[2]; 1 mg/kg/24 hr, ramp flow rate infusion
  subjects in whom AEs occurred: 2 subjects
[2]; [4]
  mild AEs: chills, subjects with event: 1 and 1/6
  mild AEs: dizziness, subjects with event: 1 and 1/6
[2]; all cohorts
  5-HTP plasma exposure with which incidence of AEs was more commonly associated: > 100 ng/mL
  severity of all AEs: mild-to-moderate
[2]; all cohorts, 24 hr IV 5-HTP infusion
  safety findings in clinical safety laboratory tests, vital signs, 12-lead electrocardiograms: no safety findings
[2]; any subjects, all cohorts
  serious or severe AEs related to the IV 5-HTP infusion: No serious or severe AEs
[2]; constant flow rate, 1 mg/kg/24 hr group
  AEs: no AEs
[2]; human, plasma, intravenous, constant rate 3 mg/kg/24 hr, read-out: plasma 5-HTP levels within 1 h in the subjects who discontinued
  concentration at 1 h: 250 to 300 ng/mL
[2]; ramp flow rate 1 mg/kg/24 hr, at highest flow rate 55.55 ml/h
  5-HTP plasma levels associated with manifestation of AEs: 112 to 266 ng/mL
[2]; [5]
  mild AEs: nausea: 1/5
  mild AEs: vomiting: 1/5
  moderate AEs: nausea: 1/5
  moderate AEs: vomiting: 1/5
Plasma cortisol; constant flow rate 1 mg/kg/24 hr, 2 hr after start of infusion, p<0.01
  plasma cortisol levels relative to placebo: significantly higher
Plasma cortisol; constant flow rate 3 mg/kg/24 hr, 2 hr after start of infusion, p<0.005
  plasma cortisol levels relative to placebo: significantly higher
Plasma cortisol; constant flow rate 3 mg/kg/24 hr, throughout the 24 hr infusion, except at the 24 hr time point
  plasma cortisol levels relative to placebo: remained significantly higher
Plasma cortisol; ramp flow rate 1 mg/kg/24 hr, 14 hr, trend, p=0.0751
  increase of plasma cortisol levels relative to placebo: not statistically significant
Plasma cortisol; ramp flow rate 2 mg/kg/24 hr, 14 hr after start of infusion, p<0.05
  plasma cortisol levels relative to placebo: significantly higher
Plasma cortisol; ramp flow rate 3 mg/kg/24 hr, 14 hr after start of infusion, p<0.0001
  plasma cortisol levels relative to placebo: significantly higher
[3]
  soluble in some solvents: up to 100 mg/ml
